According to patent US20230322854A1, “HUNTINGTIN-RELATED PEPTIDE AGENTS AND USES THEREOF” (UNIVERSITY OF SOUTHERN CALIFORNIA, priority 2020, published 2023):
“Also recorded” adds a separate entry of the source. No end group written: not given here. spin label = not defined here

Tests used:
[1] = test system: unbundled Huntingtin fibrils (exon 1); assay: Radioactive binding assay, immobilized unbundled Huntingtin fibrils; settings: for effect on HD1 binding of constant region / N-terminal mutation: HD 1A versus HD1 with GSGTSGSS, HD1 MA versus HD1 MM; for effect on binding of mutating the HD8 residue to Alanine: Alanine scan of HD8; for effect on HD8 binding affinity of constant region / N-terminal mutation: versus HD8 with GSGTSGSS, HD8 MA versus HD8 MM; for effect on binding of mutating the HD1 residue to Alanine: Alanine scan of HD1; for binding to Htt-fibrils: radiolabeled mRNA-peptide fusions, fibrils immobilized on beads
From the text: Messenger RNA (mRNA) display (described in (Roberts, et al. (1997) Proc Natl Acad Sci USA 94: 12297-302, Takahashi, et al. (2003) Trends Biochem Sci 28: 159-65); FIG. 2) was used to engineer peptide agents that bind to unbundled fibrils of Huntingtin exon 1. To do this, unbundled Huntingtin fibrils were generated by mixing biotinylated Huntingtin protein (exon 1; FIG. 1) with non-biotinylated exon 1 Huntingtin protein at a ratio of 1:20 (˜5% biotinylated Huntingtin). These fibrils were then immobilized on Neutravidin agarose (Thermo Fisher) or Streptavidin ultralink beads (Thermo Fisher) via the attached biotin. A MX9 (where X is any of the 20 natural amino acids) mRNA display library was generated using published procedures (Takahashi, et al. (2009) Methods Mol Biol 535: 293-314) and incubated with immobilized fibrils. Non-binding sequences were washed away and the remaining fibril binding peptides were amplified via RT-PCR. This process was repeated seven times.
(§1) The binding of the peptide library was determined using a radioactive binding assay. In this assay, peptides were radiolabeled by translating the mRNA coding for these peptides in the presence of ^35S-methionine using rabbit reticulocyte lysate (Jackson, et al. (1983) Methods Enzymol 96: 50-74). These peptides were translated in an mRNA display format and were thus linked to their encoding mRNA, as described above. After purification by dT chromatography, the radiolabeled peptides were incubated with Huntingtin fibrils immobilized on Neutravidin Agarose or Streptavidin Ultralink beads. The beads were then filtered through a Spin X column (Corning) to separate the supernatant and beads, then washed to remove unbound sequences. The supernatant, washes, and beads were all counted in a scintillation counter to determine the counts in each sample. The percent bound was determined by dividing the counts on the beads with the total counts (beads+washes+supernatant).

[2] = test system: Httex1 aggregates; assay: Labeling of Httex1 aggregates in retinal sections of Huntington mouse models; settings: R6/1 (34 weeks) and zQ175KI (48 weeks) mice, 2 micromolar
From the text: FIG. 28 presents fluorescence microscopy pictures showing that HD8-Alexa488 labels aggregated Httex1 in retina sections from two different mouse model of Huntington disease. Left panels show nuclear stain that labels all cells. Right panels show signal from HD8-Alexa488. Top panels show a retinal section from a R6/1 mouse, and bottom panels show a retinal section from a zQ175KI mouse.
Left panels show nuclear stain that labels all cells (A1 and B1), and right panels show signal from HD8-SP10-HD1-fluorescein (A2 and B2). Top panels are higher magnification that show the ganglion cell layer of the retina, and the bottom panels are lower magnification micrographs that show all retinal layers. Labeling of all retinal layers is seen when the HD peptides are dimerized. The phase contrast panel to the left of the bottom panels show the corresponding retinal layers: ONL: outer nuclear layer that contain rod and cone photoreceptor cells, INL: inner nuclear layer that contains cell bodies from horizontal cells, bipolar cells, amacrine cells and Müller cells, GCL: ganglion cell layer.
To see whether HD peptides bind Httex1 aggregates formed in vivo, we used tissues from two different Huntington mouse models, R6/1 (34 weeks old) and zQ175KI (48 weeks). FIG. 28 show retinal sections from these mice incubated with 2 micromolar of HD8 conjugated with Alexa488 at its carboxyl terminus.
HD8-HD1-fluorescein (0.1 micromolar) was also used on retinal sections from 34-week-old R6/1 mice (FIG. 29). […] In addition, weaker signal from intranuclear aggregates was also observed. Further, the signal can now be detected in all layers of the retina where the nuclei reside.

[3] = Radioactive binding assay, beads without target (no target control); settings: radiolabeled peptide
Protocol: as §1

[4] = molecular target: unbundled fibrils of Huntingtin exon 1 (about 5% biotinylated), immobilized on beads (UniProt P42858); assay: alanine scan of the constant region, radioactive binding assay
[5] = molecular target: unbundled fibrils of Huntingtin exon 1 (about 5% biotinylated), immobilized on beads (UniProt P42858); assay: EPR, spin-labeled peptide titrated onto 15 µM fibrils

With “HD1 MA: HD1 with additional Met at the N-terminus, Met1 changed to Ala (MADWWPMWPSLGSGTSGSS)” the “effect on HD1 binding of constant region / N-terminal mutation” value [1] was “significantly decreases binding”.

For “HD1-SP10-HD8-SP10-HD1: trimeric peptide agent of HD1, HD8, HD1 with spacers (MDWWPMWPSLGSGTSGSSGSMWQMMNGMSQGSGTSGSSGSMDWWPMWPSL)”, the “binding under lower fibril conditions” value ([1]; 0.7 μg protein (about 50 pmol as monomer)) was “better performing”.

For “HD8-Alexa488: HD8 conjugated with Alexa488 at its carboxyl terminus (MWQMMNGMSQ-Alexa488)”, the “labeling of retinal sections” value [2] was “Specific staining was observed in the ganglion cell layer of the retina in both mouse models” and the “labeling of retinal sections” value ([2]; listed as HD8 conjugated with Alexa488) was “observed mostly in the ganglion cell layer”.

In the case of “HD8SP10-HD1: dimeric peptide agent of HD8 and HD1 joined by a 10 amino acid spacer (MWQMMNGMSQGSGTSGSSGSMDWWPMWPSLGSGTSGSS)”, the “binding in the presence of urea” value ([1]; 1 M, 2 M or 3 M urea versus buffer only (TBST)) is reported as “decreased binding that is approximately proportional to the amount of urea added”.

With “HD 1A: HD1 with substitution of the GSGTSGSS constant region with Ala (MDWWPMWPSLA)” the “effect on HD1 binding of constant region / N-terminal mutation” value [1] was “little effect on binding affinity”.

In the case of MAQMMNGMSQ [W2], the “effect on binding of mutating the HD8 residue to Alanine” value [1] is reported as “modest losses”.

In the case of “MAWQMMNGMSQ GSGTSGSS (MAWQMMNGMSQGSGTSGSS) [HD8 MA]”, the “effect on HD8 binding affinity of constant region / N-terminal mutation” value [1] is reported as “decrease in binding”.

In the case of MDAWPMWPSL [W3], the “effect on binding of mutating the HD1 residue to Alanine” value [1] is reported as “decrease binding”.

With MDLWPMWESW (MDLWPMWESWGSGTSGSS) [HD7] the “binding to Htt-fibrils” value [1] was “good binding to Htt-fibrils” and the “binding to beads without target” value [3] was “little to no binding to beads without target”.

With MDWWAMWPSL [P5] the “effect on binding of mutating the HD1 residue to Alanine” value [1] was “decrease binding”.

For MDWWPAWPSL [M6], the “effect on binding of mutating the HD1 residue to Alanine” value [1] was “decrease binding; also recorded: reduced but did not abolish”.

In the case of “MDWWPLWPSL (MDWWPLWPSLGSGTSGSS) [HD1 M6L]”, the “effect on binding of Met substitution in HD1” value ([1]; HD1 Met mutants versus HD1) is reported as “no effect on binding”.

With MDWWPMWASL [P8] the “effect on binding of mutating the HD1 residue to Alanine” value [1] was “decrease binding”.

In the case of MDWWPMWPSA [L10], the “effect on binding of mutating the HD1 residue to Alanine” value [1] is reported as “decrease binding”.

With MFFVLSWTPL [HD5] the “binding to beads without target” value [3] was “high non-specific binding to beads without target”.

With MFMMMWMSLT (MFMMMWMSLTGSGTSGSS) [HD4] the “binding to Htt-fibrils” value [1] was “demonstrated binding to Htt-fibrils” and the “binding to beads without target” value [3] was “little to no binding to beads without target”.

In the case of MQMWTMWEPW (MQMWTMWEPWGSGTSGSS) [HD 6], the “binding to Htt-fibrils” value [1] is reported as “good binding to Htt-fibrils” and the “binding to beads without target” value [3] is reported as “little to no binding to beads without target”.

In the case of MRWSMSYSWA (MRWSMSYSWAGSGTSGSS) [HD3], the “binding to Htt-fibrils” value [1] is reported as “demonstrated binding to Htt-fibrils” and the “binding to beads without target” value [3] is reported as “little to no binding to beads without target”.

With MWAMMNGMSQ [Q3] the “effect on binding of mutating the HD8 residue to Alanine” value [1] was “large losses of binding”.

In the case of MWMIQMPGYQ (MWMIQMPGYQGSGTSGSS) [HD2], the “binding to Htt-fibrils” value [1] is reported as “demonstrated binding to Htt-fibrils” and the “binding to beads without target” value [3] is reported as “little to no binding to beads without target”.

In the case of MWQMANGMSQ [M5], the “effect on binding of mutating the HD8 residue to Alanine” value [1] is reported as “modest losses”.

In the case of MWQMMNAMSQ [G7], the “effect on binding of mutating the HD8 residue to Alanine” value [1] is reported as “modest losses”.

In the case of MWQMMNGASQ [M8], the “effect on binding of mutating the HD8 residue to Alanine” value [1] is reported as “modest losses”.

In the case of MWQMMNGMSQA [HD 8A], the “effect on HD8 binding affinity of constant region / N-terminal mutation” value [1] is reported as “modest loss in binding affinity”.

For MWQMMNGMSQG [HD 8G], the “effect on HD8 binding affinity of constant region / N-terminal mutation” value [1] was “loss could be recovered”.

For MWQMMNGMSQGS [HD 8GS], the “effect on HD8 binding affinity of constant region / N-terminal mutation” value [1] was “loss could be recovered”.

MDWWPMWPSLGAGTSGSS (also: 35S-methionine) [HD1 S12A] showed a percent decrease in HD1 binding [4] of 20%.

MDWWPMWPSLASGTSGSS (also: 35S-methionine) [HD1 G11A] showed a percent decrease in HD1 binding [4] of 20%.

B1: HD8-SP10-HD1-SP10-HD8-SP10-HD1: tetrameric HD8/HD1 molecule with spacers (peptide)
peptide: MWQMMNGMSQGSGTSGSSGSMDWWPMWPSLGSGTSGSSGSMWQMMNGMSQGSGTSGSSGSMDWWPMWPSL
For B1, the “binding to Htt-fibrils in the presence of serum” value ([1]; serum diluted 1:2, 1:5 or 1:10 with buffer (TBST)) was “serum can partially inhibit binding”.

With MDWWPMWPSLC(spin label) (reading uncertain) [spin-labeled synthetic HD1] the stoichiometry of the complex (ratio at saturation) (ratio (printed 1:3)) [5] was 0.33.

MWQMMNGMSQC(spin label) (reading uncertain) [spin-labeled synthetic HD8] showed a stoichiometry of the complex (ratio) (ratio (printed 1:1)) [5] of 1.

With MDWWPMWPSLGSATSGSS (also: 35S-methionine) [HD1 G13A] the percent decrease in HD1 binding [4] was 20%.
